One may read the IC50 as the concentration that gives 50% inhibition.

The text below walks through data of ChEMBL document CHEMBL1949553, “Microbial transformation of deoxyandrographolide and their inhibitory activity on LPS-induced NO production in RAW 264.7 macrophages” (Bioorg Med Chem Lett, 2012).

Each structure is given as a SMILES string.

System in the first data set: not listed separately
Nature of the data set: Cytotoxicity against mouse RAW264.7 cells assessed as cell viability at 100 uM after 24 hrs by MTT assay. It is filed as cell-based. Conditions: read-out: Activity. For orientation: Formazan colour is commonly taken as a measure of viable cells.
Turning to `C=C1CC[C@H]2[C@@](C)(C=CC(=O)[C@@]2(C)CO)[C@@H]1CCC1=CCOC1=O`, the viability at 24 h, 100 µM was determined as 100%.

On to `C[C@]1(CO)[C@H]2CC=C(CO)[C@@H](/C=C/C3=CCOC3=O)[C@]2(C)CC[C@H]1O`, for which the viability at 24 h, 100 µM was 106%.

With `C=C1CC[C@H]2[C@@](C)(CCC(=O)[C@@]2(C)CO)[C@@H]1CCC1=CCOC1=O`, the viability at 24 h, 100 µM came out at 110%.

`C=C1CC[C@H]2[C@@](C)([C@H](O)CC(=O)[C@@]2(C)CO)[C@@H]1CCC1=CCOC1=O`: the viability at 24 h, 100 µM was found to be 100%.

Regarding `C=C1CC[C@@H]2[C@](C)(CO)CCC[C@@]2(C)[C@@H]1CCC1=CCOC1=O` [ANDROGRAPANIN], the viability at 24 h, 100 µM was 99.8%.

In the case of `C[C@@]1(CO)[C@H](O)CC[C@@]2(C)C(CCC3=CCOC3=O)=C(CO)CC[C@H]12`, the viability at 24 h, 100 µM stood at 91.1%.

`C=C1CC[C@@H]2[C@](C)(COC3O[C@H](CO)[C@@H](O)[C@H](O)[C@H]3O)CCC[C@@]2(C)[C@@H]1CCC1=CCOC1=O` (some centres not stated): the viability at 24 h, 100 µM turned out to be 81.4%.

As for `C[C@@]12CCC(=O)[C@@](C)(CO)[C@H]1CC[C@@]1(CO1)[C@H]2CCC1=CCOC1=O`, the viability at 24 h, 100 µM came to 63.1%.

On to `C=C1CC[C@@H]2[C@](C)(CO)[C@H](O)CC[C@@]2(C)[C@]1(O)/C=C/C1=CCOC1=O`, for which the viability at 24 h, 100 µM was 98.6%.

For the molecule `C=C1CC[C@@H]2[C@](C)(CO)[C@H](O)C[C@@H](O)[C@@]2(C)[C@@H]1CCC1=CCOC1=O`, the viability at 24 h, 100 µM is 101%.

`C[C@@]1(CO)[C@H](O)CC[C@@]2(C)C(CCC3=CCOC3=O)=C(C=O)CC[C@H]12`: the viability at 24 h, 100 µM worked out at 99.7%.

For the molecule `C=C1CC[C@@H]2[C@](C)(CO)[C@H](O)CC[C@@]2(C)[C@@H]1C/C=C1/C(=O)OC[C@@H]1O`, the viability at 24 h, 100 µM turned out to be 65.2%.

As to `C=C1[C@@H](CCC2=CCOC2=O)[C@]2(C)CC[C@@H](O)[C@@](C)(CO)[C@H]2C[C@@H]1O`, the viability at 24 h, 100 µM was found to be 89.1%.

Regarding `C[C@@]12CCC(=O)[C@@](C)(CO)[C@H]1CCC(CO)=C2CCC1=CCOC1=O`, the viability at 24 h, 100 µM was 101%.

In the case of `C=C1CC[C@@H]2[C@](C)(CO)C(=O)CC[C@@]2(C)[C@]1(O)CCC1=CCOC1=O`, the viability at 24 h, 100 µM was 87.5%.

For `CN(C)c1ccc(O)c2c1C[C@H]1C[C@H]3[C@H](N(C)C)C(O)=C(C(N)=O)C(=O)[C@@]3(O)C(O)=C1C2=O` [MINOCYCLINE], the viability at 24 h, 100 µM is 100%.

Regarding `C=C1CC[C@H]2[C@@](C)(CCC(=O)[C@@]2(C)CO)[C@@H]1/C=C/C1=CCOC1=O`, the viability at 24 h, 100 µM was found to be 104%.

As for `C[C@]1(CO)[C@H]2CC[C@@]3(CO3)[C@@H](CCC3=CCOC3=O)[C@]2(C)CC[C@H]1O`, the viability at 24 h, 100 µM was 88.4%.

On to `C=C1[C@H](O)C[C@H]2[C@@](C)(CCC(=O)[C@@]2(C)CO)[C@@H]1CCC1=CCOC1=O`, for which the viability at 24 h, 100 µM was determined as 102%.

As for `C=C1CC[C@@H]2[C@](C)(CO)[C@H](O)CC[C@@]2(C)[C@]1(O)CCC1=CCOC1=O`, the viability at 24 h, 100 µM came to 86%.

In the case of `C[C@@]12CCC(=O)[C@@](C)(CO)[C@H]1CC=C(CO)[C@H]2CCC1=CCOC1=O`, the viability at 24 h, 100 µM was determined as 104%.

Consider `C=C1CC[C@@H]2[C@](C)(CO)[C@H](O)CC[C@@]2(C)[C@@H]1C/C=C(/C(=O)O)[C@@H](O)CO`, for which the viability at 24 h, 100 µM was determined as 104%.

Turning to `C=C1CC[C@H]2[C@@](C)(C[C@H](O)C(=O)[C@@]2(C)CO)[C@@H]1CCC1=CCOC1=O`, the viability at 24 h, 100 µM was found to be 103%.

`C=C1CC[C@@H]2[C@](C)(CO)[C@H](O)CC[C@@]2(C)[C@@H]1CCC1=CCOC1=O` [DEOXYANDROGRAPHOLIDE]: the viability at 24 h, 100 µM worked out at 100%.

Regarding `C=C1CC[C@@H]2[C@](C)(CO)[C@H](O)CC[C@@]2(C)[C@@H]1C/C=C1/C(=O)OC[C@H]1O` [ANDROGRAPHOLIDE], the viability at 24 h, 100 µM was determined as 49.6%.

As to `CO[C@]1(CO)CC[C@@H]2[C@](C)(CO)[C@H](O)CC[C@@]2(C)[C@@H]1CCC1=CCOC1=O`, the viability at 24 h, 100 µM stood at 100%.

The next data set concerns RAW264.7. As to the kind of experiment: Antiinflammatory activity in mouse RAW264.7 cells assessed as inhibition of LPS-induced NO production after 24 hrs by Griess method. It is filed as functional, cell-based. Conditions: RAW264.7, 24 h. For orientation: Nitrite, measured by Griess reagent, commonly stands in for NO production.
`C=C1CC[C@H]2[C@@](C)(C=CC(=O)[C@@]2(C)CO)[C@@H]1CCC1=CCOC1=O`: the IC50 was found to be 10 µM.

Take `C[C@]1(CO)[C@H]2CC=C(CO)[C@@H](/C=C/C3=CCOC3=O)[C@]2(C)CC[C@H]1O`: the 50% inhibitory concentration (IC50) turned out to be 39.1 µM.

Regarding `C=C1CC[C@H]2[C@@](C)(CCC(=O)[C@@]2(C)CO)[C@@H]1CCC1=CCOC1=O`, the 50% inhibitory concentration (IC50) was 10.1 µM.

Consider `C=C1CC[C@H]2[C@@](C)([C@H](O)CC(=O)[C@@]2(C)CO)[C@@H]1CCC1=CCOC1=O`, for which the 50% inhibitory concentration (IC50) is 61.9 µM.

In the case of `C=C1CC[C@@H]2[C@](C)(CO)CCC[C@@]2(C)[C@@H]1CCC1=CCOC1=O` [ANDROGRAPANIN], the 50% inhibitory concentration (IC50) is 11.6 µM.

As for `C[C@@]1(CO)[C@H](O)CC[C@@]2(C)C(CCC3=CCOC3=O)=C(CO)CC[C@H]12`, the IC50 is > 100 µM.

Consider `C=C1CC[C@@H]2[C@](C)(COC3O[C@H](CO)[C@@H](O)[C@H](O)[C@H]3O)CCC[C@@]2(C)[C@@H]1CCC1=CCOC1=O` (some centres not stated), for which the 50% inhibitory concentration (IC50) was > 100 µM.

Turning to `C[C@@]12CCC(=O)[C@@](C)(CO)[C@H]1CC[C@@]1(CO1)[C@H]2CCC1=CCOC1=O`, the IC50 worked out at 89.2 µM.

For the molecule `C=C1CC[C@@H]2[C@](C)(CO)[C@H](O)CC[C@@]2(C)[C@]1(O)/C=C/C1=CCOC1=O`, the concentration for half-maximal inhibition (IC50) worked out at 97.2 µM.

In the case of `C=C1CC[C@@H]2[C@](C)(CO)[C@H](O)C[C@@H](O)[C@@]2(C)[C@@H]1CCC1=CCOC1=O`, the IC50 was > 100 µM.

For the molecule `C[C@@]1(CO)[C@H](O)CC[C@@]2(C)C(CCC3=CCOC3=O)=C(C=O)CC[C@H]12`, the IC50 was > 100 µM.

Regarding `C=C1CC[C@@H]2[C@](C)(CO)[C@H](O)CC[C@@]2(C)[C@@H]1C/C=C1/C(=O)OC[C@@H]1O`, the IC50 was 26.5 µM.

For `C=C1[C@@H](CCC2=CCOC2=O)[C@]2(C)CC[C@@H](O)[C@@](C)(CO)[C@H]2C[C@@H]1O`, the IC50 was > 100 µM.

Consider `C[C@@]12CCC(=O)[C@@](C)(CO)[C@H]1CCC(CO)=C2CCC1=CCOC1=O`, for which the IC50 is 79 µM.

For the molecule `C=C1CC[C@@H]2[C@](C)(CO)C(=O)CC[C@@]2(C)[C@]1(O)CCC1=CCOC1=O`, the IC50 is 28.4 µM.

Turning to `CN(C)c1ccc(O)c2c1C[C@H]1C[C@H]3[C@H](N(C)C)C(O)=C(C(N)=O)C(=O)[C@@]3(O)C(O)=C1C2=O` [MINOCYCLINE], the IC50 came out at 34.9 µM.

Take `C=C1CC[C@H]2[C@@](C)(CCC(=O)[C@@]2(C)CO)[C@@H]1/C=C/C1=CCOC1=O`: the IC50 was 75.3 µM.

As for `C[C@]1(CO)[C@H]2CC[C@@]3(CO3)[C@@H](CCC3=CCOC3=O)[C@]2(C)CC[C@H]1O`, the IC50 was > 100 µM.

Turning to `C=C1[C@H](O)C[C@H]2[C@@](C)(CCC(=O)[C@@]2(C)CO)[C@@H]1CCC1=CCOC1=O`, the IC50 is 58.2 µM.

As for `C=C1CC[C@@H]2[C@](C)(CO)[C@H](O)CC[C@@]2(C)[C@]1(O)CCC1=CCOC1=O`, the IC50 was > 100 µM.

Turning to `C[C@@]12CCC(=O)[C@@](C)(CO)[C@H]1CC=C(CO)[C@H]2CCC1=CCOC1=O`, the IC50 turned out to be 71.3 µM.

As for `C=C1CC[C@@H]2[C@](C)(CO)[C@H](O)CC[C@@]2(C)[C@@H]1C/C=C(/C(=O)O)[C@@H](O)CO`, the IC50 was > 100 µM.

Consider `C=C1CC[C@H]2[C@@](C)(C[C@H](O)C(=O)[C@@]2(C)CO)[C@@H]1CCC1=CCOC1=O`, for which the IC50 was found to be 12.2 µM.

With `C=C1CC[C@@H]2[C@](C)(CO)[C@H](O)CC[C@@]2(C)[C@@H]1CCC1=CCOC1=O` [DEOXYANDROGRAPHOLIDE], the IC50 was 21 µM.

On to `C=C1CC[C@@H]2[C@](C)(CO)[C@H](O)CC[C@@]2(C)[C@@H]1C/C=C1/C(=O)OC[C@H]1O` [ANDROGRAPHOLIDE], for which the IC50 turned out to be 6.96 µM.

`CO[C@]1(CO)CC[C@@H]2[C@](C)(CO)[C@H](O)CC[C@@]2(C)[C@@H]1CCC1=CCOC1=O`: the IC50 was > 100 µM.
